Experiment [1] deals with K562 vector control viability, CellTiter-Glo, 18 h. As to the kind of experiment: concentration-response toxicity in K562 empty-vector line, CellTiter-Glo luminescence, ABCB6 inhibitor project counterscreen, PowderSet01 powders (AID 651652). In general terms: ATP-based viability assays read luminescence as a measure of living cells.
Assay in experiment [2]: as above
Conditions: K562 vector control viability, CellTiter-Glo, 18 h; at 100 µM (top of the series).

In general, EC50 refers to the concentration at which the effect is half-maximal. The term viability denotes the share of living cells, or the viability signal relative to a control.

The source made the active and inactive calls.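 The calls were made as follows: active = viability at the highest tested concentration below 50%; inactive = the rest.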

For `CCc1ccc(NC(=O)c2nc(S(=O)(=O)Cc3ccccc3)ncc2Cl)cc1`, the EC50 in experiment [1] is 4.51 µM.
`CCOc1ccccc1NC(=O)c1nc(S(=O)(=O)Cc2cccc(C)c2)ncc1Cl`: in experiment [1], the EC50 was 11.9 µM.
Regarding `CC(=O)Nc1ccc(NC(=O)c2nc(S(=O)(=O)Cc3ccccc3)ncc2Cl)cc1`, the viability in experiment [2] was 58% (inactive).
Still for that read-out and setting: as for `CC(=O)Nc1ccc(NC(=O)c2nc(S(=O)(=O)Cc3cccc(C)c3)ncc2Cl)cc1`, the figure is 51.9% (inactive).
